Where two headings read alike, the source gives them in different places.
Key:
wild-type HSV-1 strain F = test: Anti-HSV-1 plaque reduction assay (PRA) on supernatants of infected U2OS cells; format: cell-based; settings: for IC50: MOI 1, supernatants at 24 h.p.i., plaque reduction assay, read-out: IC50 (concentration able to perform 50% inhibition of HSV-1 production)
Protocol: (§1) Quindoline-derived compounds were first screened for their anti-herpetic activity. Increasing concentrations of compounds (from 25 to 400 nM) were added to U2OS cells infected with wild-type HSV-1 strain F at a MOI of 1. Supernatants were collected at 24 hours post infection (h.p.i.) and the reduction of viral particles production was determined by plaque reduction assay (PRA) (see, Artusi S., et al., Antiviral Res. 2015; 118:123-31; Callegaro S., et al., Sci. Rep. 2017; 7: 2341). Antiviral activities were determined as the concentration of compounds able to perform 50% inhibition of HSV-1 production (IC50). Cytotoxicity effects were evaluated in parallel by MTT assay and reported as the concentration of compounds able to kill 50% of the cells (CC50). The selectivity index (SI) was calculated as the ratio of CC50 to IC50.

[1] = tested on: U2OS (Human osteosarcoma cell line); test: Cytotoxicity by MTT assay; format: cell-based; settings: U2OS cells, read-out: CC50 (concentration able to kill 50% of the cells)
Protocol: as §1, with “Increasing concentrations of compounds (from 25 to 400 nM) were added to U2OS cells infected with wild-type HSV-1 strain F at a MOI of 1.” left out

[2] = Cytotoxicity by MTT assay; format: cell-based, Human; settings: human, U2OS cells (osteosarcoma cell line), read-out: CC50 (concentration able to kill 50% of the cells)
Protocol: as §1, with “Increasing concentrations of compounds (from 25 to 400 nM) were added to U2OS cells infected with wild-type HSV-1 strain F at a MOI of 1.” left out

HSV-1 = test: Time of addition (TOA) assay in HSV-1-infected U2OS cells; format: cell-based; settings: non-toxic concentration, added every 2 hours up to 10 h.p.i., supernatants at 30 h.p.i. titrated by PRA
Protocol: To assess the main and temporally last viral step targeted by the most promising compound, GSA-0932, a time of addition (TOA) assay was performed (see, FIG. 2) (see, Artusi S., et al., Antiviral Res. 2015; 118:123-31; Callegaro S., et al., Sci. Rep. 2017; 7: 2341; Daelemans D., et al., Nat. Protoc. 2011; 6(6):925-33). This experiment permits determination of how long the addition of a compound can be postponed before it loses its antiviral activity. Since the HSV-1 replication cycle proceeds in a well-established chronological order, it is possible to investigate the last viral process targeted by a compound comparing its action to that of a reference drug in the time frame of replication events. The well characterized anti-HSV drug Acyclovir (ACV) was considered as reference (see, Artusi S., et al., Antiviral Res. 2015; 118:123-31; Callegaro S., et al., Sci. Rep. 2017; 7: 2341). HSV-1-infected U2OS cells were treated with a non-toxic concentration of GSA-0932 at different times post-infection (corresponding to different viral cycle steps): every 2 hours up to 10 h.p.i. Supernatants were collected at 30 h.p.i. and then titrated by PRA.

[3] = tested on: HSV-1 un3 G-quadruplex folding sequence; test: Circular dichroism (CD) melting of G-quadruplex, un3; format: binding
Protocol: (§2) Circular dichroism (CD) was conducted to evaluate the binding and stabilizing activity of GSA-0932 to HSV-1 G-quadruplex structures (G4s). Three sequences were considered: two sequences forming a four-stacked-G-quartet structure (un2 and gp054a) and one forming a three-G-quartet G4 (un3) (see, Artusi S., et al., Antiviral Res. 2015; 118:123-31). HSV-1 G4s were analyzed at a final concentration of 4 μM in the presence of the physiological K^+ concentration (100 mM) or in the presence of lower K^+ concentration (2.5 mM) in order to better appreciate the effect of the compound in the case of extremely stable G4 structures (e.g. un2 sequence). Oligonucleotides were also analyzed in the absence or presence of 4-folds excess of GSA-0932.

[4] = tested on: HSV-1 un2 G-quadruplex folding sequence; test: Circular dichroism (CD) melting of G-quadruplex, un2; format: binding; settings: un2 4 μM + 16 μM GSA-0932, K+ 2.5 mM
Protocol: as §2

[5] = tested on: HSV-1 gp054a G-quadruplex folding sequence; test: Circular dichroism (CD) melting of G-quadruplex, gp054a; format: binding; settings: for Tm, first value: first of two printed Tm; for Tm, second value: second of two printed Tm
Protocol: as §2

[6] = tested on: un2, un3 and gp054a G-quadruplex forming templates; test: Taq polymerase stop assay, G-quadruplex templates; format: biochemical, HSV-1; settings: 2-8 μM compound; un3 at 50 mM K+, un2 and gp054a at 0.5 mM K+
Protocol: (§3) FIG. 3: Taq polymerase stop assay. A) Image of a typical Taq polymerase stop assay. The un2, un3, gp054a template were amplified by Taq polymerase in the absence (lanes 5-9-13) and in the presence of K^+, combined with increasing amounts (2-8 μM) of GSA-0932 (lanes 7-8, 11-12, 15-16) or same amount of DMSO as that in the ligand (lanes 6-10-14). Un3 was analyzed at 50 mM of K^+, while the other sequences were investigated at 0.5 mM of K^+. A template (non-G4 ctrl) unable to fold into G4 was also used as control (lanes 1-4). P stands for unreacted labeled primer, FL stands for full length product. G4-specific Taq polymerase stop sites are highlighted by vertical bars. Quantification of stop bands corresponding to G4 and of the full length amplification product (FL) is shown.
To confirm the increased stability of the viral G-quadruplexes in the presence of GSA-0932, a Taq polymerase stop assay was next set up (FIG. 3). Extended un2, un3 and gp054a forming sequences were used, containing additional flanking bases at the 3′-end: a primer annealing sequence and a 5-T linker region to separate the annealing sequence from the first G of the G-tract.
(§4) Un3 was analyzed at 50 mM of K^+, while the FIG. 3 other sequences were investigated at 0.5 mM of K^+ due to their higher stability.

[7] = tested on: control DNA template unable to fold into G-quadruplex; test: Taq polymerase stop assay, non-G4 control template; format: biochemical; settings: non-G4 ctrl template
Protocol: as §3, §4

[8] = tested on: un3 G-quadruplex-folded oligonucleotide; test: Competition ESI-MS binding, un3; set-up: species or system HSV-1; settings: competing G4s un3/hTel, oligonucleotides 4 μM, DNA:compound 1:1.5, overnight 4° C.
Protocol: (§5) Competition electrospray ionization mass spectrometry (ESI-MS) experiments were performed in order to check the binding selectivity of GSA-0932 toward different G-quadruplex forming sequences (see, Callegaro S., et al., Sci. Rep. 2017; 7: 2341; Yuan G., et al., Mass Spectrom. Rev. 2011, 30, 1121-114210.1002/mas.20315). The viral un3, un2 and gp054a G4s were analyzed against the selected competitor hTel, the G-quadruplex-forming sequence of the human telomeric repeat, the most abundant cellular G-quadruplex. The oligonucleotides were diluted to final concentration of 4 μM and incubated with the compound at ratio DNA:compound 1:1.5 overnight at 4° C. Samples were analyzed by a Xevo G2-XS QT of mass spectrometer (Waters, Manchester, UK). Binding affinities were calculated for each experiment using the peak intensity for each species measured by MassLynx V4.1.

[9] = tested on: un2 G-quadruplex-folded oligonucleotide; test: Competition ESI-MS binding, un2; set-up: species or system HSV-1; settings: competing G4s un2/hTel, oligonucleotides 4 μM, DNA:compound 1:1.5, overnight 4° C.
Protocol: as §5

[10] = tested on: gp054a G-quadruplex-folded oligonucleotide; test: Competition ESI-MS binding, gp054a; set-up: species or system HSV-1; settings: competing G4s gp054a/hTel, oligonucleotides 4 μM, DNA:compound 1:1.5, overnight 4° C.
Protocol: as §5

[11] = tested on: hTel, the G-quadruplex-forming sequence of the human telomeric repeat; test: Competition ESI-MS binding, hTel; settings: oligonucleotides 4 μM, DNA:compound 1:1.5, overnight 4° C.
Protocol: as §5

[12] = Human alphaherpesvirus 1, HSV-1 strain F
[13] = un3 4 μM + 16 μM GSA-0932, K+ 2.5 mM
[14] = un3 4 μM + 16 μM GSA-0932, K+ 100 mM
[15] = gp054a 4 μM + 16 μM GSA-0932, K+ 2.5 mM
[16] = gp054a 4 μM + 16 μM GSA-0932, K+ 100 mM

For `Cc1c2ccncc2c(C)c2c1[nH]c1ccc(OCCN(C)C)cc12` [GQC-05, reference compound], the IC50 (wild-type HSV-1 strain F; HSV-1 strain F) was 0.311 µM and the CC50 [1] was 1.65 µM.

With `c1ccc2c3c4c(nc2c1)c1ccccc1n4CCCN3CCCN1CCOCC1` [GSA-0825] the “SI (selectivity index, ratio of CC50 to IC50)” value (wild-type HSV-1 strain F) was 91.64, the IC50 (wild-type HSV-1 strain F; [12]) was 0.357 µM and the CC50 [2] was 32.7 µM.

In the case of `CN1CCN(CCCN2CCCn3c4ccccc4c4nc5ccccc5c2c43)CC1` [GSA-0903], the “SI (selectivity index, ratio of CC50 to IC50)” value (wild-type HSV-1 strain F) is reported as less than 31.15, the IC50 (wild-type HSV-1 strain F; [12]) is reported as greater than 0.2 µM and the CC50 [2] is reported as 6.23 µM.

For `Cl.c1ccc2c3c4c(nc2c1)c1ccccc1n4CCCN3CCCN1CCCCCC1` [GSA-0920], the “SI (selectivity index, ratio of CC50 to IC50)” value (wild-type HSV-1 strain F) was less than 9.05, the IC50 (wild-type HSV-1 strain F; [12]) was greater than 0.4 µM and the CC50 [2] was 3.62 µM.

In the case of `OC1CCN(CCN2CCCn3c4ccccc4c4nc5ccccc5c2c43)CC1` [GSA-0932], the “SI (selectivity index, ratio of CC50 to IC50)” value (wild-type HSV-1 strain F) is reported as 112.9, the IC50 (wild-type HSV-1 strain F; [12]) is reported as 0.132 µM and the CC50 [2] is reported as 14.9 µM. The “time of addition up to which infection was kept controlled” value (HSV-1) was “up to 6 h.p.i”, the Tm [3, 13] was 56.4 ± 1.2 °C and the ΔTm [3, 13] was 18.8 ± 0.8 °C. The Tm [3, 14] was 66.4 °C, the ΔTm [3, 14] was 1.4 °C and the Tm [4] was greater than 90 °C. The ΔTm [4] was greater than 7.5 °C, the ΔTm [5, 15] was 15.6 °C and the “Tm, first value” [5, 15] was 74.5 °C. The “Tm, second value” [5, 15] was greater than 90 °C, the “Tm, first value” [5, 16] was 74.7 °C and the “ΔTm, first value” ([5]; gp054a 4 μM + 16 μM GSA-0932, K+ 100 mM, first of two printed ΔTm) was 17.4 °C. The “Tm, second value” [5, 16] was greater than 90 °C, the “ΔTm, second value” ([5]; gp054a 4 μM + 16 μM GSA-0932, K+ 100 mM, second of two printed ΔTm) was greater than 7.5 °C and the “intensity of the G4 stop bands” value [6] was “increased in a concentration dependent manner”. For the same compound, the “effect on control DNA template” value [7] was “no effect”, the “Relative binding affinity, un3” value [8] was 50.3 ± 1.2 and the “Relative binding affinity, un2” value [9] was 38.9 ± 1.7. The “Relative binding affinity, gp054a” value [10] was 57.3 ± 0.4, the “Relative binding affinity, Cell G4 (hTel)” value ([11]; competing G4s un2/hTel) was 11.1 ± 0.4 and the “Relative binding affinity, Cell G4 (hTel)” value ([11]; competing G4s un3/hTel) was 13.8 ± 0.2.

In the case of `c1ccc2c3c4c(nc2c1)c1ccccc1n4CCCN3CCCN1CCCCC1` [GSA-1202], the “SI (selectivity index, ratio of CC50 to IC50)” value (wild-type HSV-1 strain F) is reported as 21.31, the IC50 (wild-type HSV-1 strain F; [12]) is reported as 0.203 µM and the CC50 [2] is reported as 4.32 µM.

For `CN(C)CCN1CCCn2c3ccccc3c3nc4ccccc4c1c32` [GSA-1502], the “SI (selectivity index, ratio of CC50 to IC50)” value (wild-type HSV-1 strain F) was 68.70, the IC50 (wild-type HSV-1 strain F; [12]) was 0.188 µM and the CC50 [2] was 12.9 µM.

For `CN(C)CCCN1CCCn2c3ccccc3c3nc4ccccc4c1c32` [GSA-1504], the “SI (selectivity index, ratio of CC50 to IC50)” value (wild-type HSV-1 strain F) was 20.42, the IC50 (wild-type HSV-1 strain F; [12]) was 0.225 µM and the CC50 [2] was 4.6 µM.

With `OC1CCC(CCN2CCCn3c4ccccc4c4nc5ccccc5c2c43)CC1` (centres unmarked) [GSA-1512] the “SI (selectivity index, ratio of CC50 to IC50)” value (wild-type HSV-1 strain F) was 70.78, the IC50 (wild-type HSV-1 strain F; [12]) was 0.256 µM and the CC50 [2] was 18.1 µM.

Reference: patent US12559499B2, “Uses of compounds having anti-HSV-1 activity” (Arizona Board of Regents on Behalf of the University of …, priority 2019, dated 2026)
